Measurements as given in patent publication US9890171B2, “Aldosterone synthase inhibitors” (Boehringer Ingelheim International GmbH, priority 2014, dated 2018).

The compounds below were run against aldosterone synthase (CYP11B2) (Macaca fascicularis, UniProt A0A2K5UPL9) (assay: aldosterone synthase inhibition assay). Conditions: cynomolgus adrenal gland mitochondria, 2 μM corticosterone, aldosterone quantified by mass spectrometry.
Assay type: biochemical, cynomolgus monkey
Protocol: The aldosterone synthase inhibition assay employs cynomolgus adrenal gland mitochondria as the source of aldosterone synthase (CYP11B2). Mitochondria are prepared from frozen cynomolgus monkey adrenal glands according to Method A described in by J. D. McGarry et al. (Biochem. J., 1983, 214, 21-28), with a final resuspension in the AT buffer described in R. Yamaguchi et al. (Cell Death and Differentiation, 2007, 14, 616-624), frozen as aliquots in liquid nitrogen and stored at −80° C. until use.
Assays are performed in 96-well format in a final volume of 60 μL/well, containing 100 mM potassium phosphate, pH 7.4, 1% (v/v) DMSO, and additionally, 2 μM of corticosterone and […] of mitochondrial protein. Reactions are started by the addition of NADPH to 1 mM and allowed to proceed for 60-90 minutes at 37° C. Reactions are terminated by the addition of […]. One hundred microliters are then transferred to a glass filter plate and centrifuged at 570×g for 5 minutes and the filtrate is collected. Reaction product aldosterone is quantified by mass spectrometry. To determine the assay blank value (0% activity), NADPH is omitted from some reactions.
Dose dependent inhibition is quantified by the inclusion of compound at various concentrations. Maximum activity (100%) is defined by reactions containing NADPH, but without compound. Activities at each concentration are expressed as a percentage of the maximum activity (y-axis) and plotted against concentration of compound (x-axis) and the concentration corresponding to 50% activity (IC50) determined using the XLFit curve-fitting program using a 4-parameter logistic model.

aldosterone synthase (CYP11B2), sequence (A0A2K5UPL9 1-503): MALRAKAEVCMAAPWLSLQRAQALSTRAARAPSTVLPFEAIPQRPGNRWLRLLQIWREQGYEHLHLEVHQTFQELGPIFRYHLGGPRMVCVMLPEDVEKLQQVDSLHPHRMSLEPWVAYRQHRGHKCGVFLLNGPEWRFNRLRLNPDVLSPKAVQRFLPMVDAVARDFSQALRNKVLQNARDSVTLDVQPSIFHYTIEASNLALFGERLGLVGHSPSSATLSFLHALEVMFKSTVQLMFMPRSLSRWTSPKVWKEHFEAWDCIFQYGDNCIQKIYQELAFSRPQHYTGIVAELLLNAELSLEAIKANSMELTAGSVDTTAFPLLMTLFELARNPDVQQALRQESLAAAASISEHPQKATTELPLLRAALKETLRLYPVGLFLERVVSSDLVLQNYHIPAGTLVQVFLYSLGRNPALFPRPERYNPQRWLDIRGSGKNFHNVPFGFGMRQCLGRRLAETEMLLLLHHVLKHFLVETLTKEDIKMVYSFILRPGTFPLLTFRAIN

Row | IC50 [nM] | SMILES
1 | 114 | OC1c2cncc(-c3ccc4c(c3)COCCO4)c2COC12CC2 (single isomer, unassigned) [Compound 111, 8-(3,5-dihydro-2H-1,4-benzo[e][1,4]dioxepin-7-yl)spiro[1,4-dihydropyrano[4,3-c]pyridine-3,1′-cyclopropane]-4-ol]
2 | 166 | Cc1cc2cnn(C)c2cc1-c1cncc2c1COCC2N (single isomer, unassigned) [Compound 70, 8-(1,5-Dimethyl-1H-indazol-6-yl)-3,4-dihydro-1H-pyrano[4,3-c]pyridin-4-ylamine]
3 | 484 | OC1COCc2c(-c3ccccc3)cncc21 (single isomer, unassigned) [Compound 3, 8-Phenyl-3,4-dihydro-1H-pyrano[4,3-c]pyridin-4-ol]
4 | 150 | O=C1CCc2nc(-c3cncc4c3COCC4O)ccc21 (single isomer, unassigned) [Compound 181, 2-(4-Hydroxy-3,4-dihydro-1H-pyrano[4,3-c]pyridin-8-yl)-6,7-dihydro-[1]pyrindin-5-one]
5 | 12.5 | O=C1CCCc2cc(-c3cncc4c3COCC4O)ccc21 (single isomer, unassigned) [Compound 118, 6-(4-Hydroxy-3,4-dihydro-1H-pyrano[4,3-c]pyridin-8-yl)-3,4-dihydro-2H-naphthalen-1-one]
6 | 19.1 | Cn1nc(F)c2ccc(-c3cncc4c3COCC4(C)O)cc21 (single isomer, unassigned) [Compound 171, 8-(3-Fluoro-1-methyl-1H-indazol-6-yl)-4-methyl-3,4-dihydro-1H-pyrano[4,3-c]pyridin-4-ol]
7 | 808 | OC1COCc2c(-c3ccc4ocnc4c3)cncc21 (single isomer, unassigned) [Compound 53, 8-Benzooxazol-5-yl-3,4-dihydro-1H-pyrano[4,3-c]pyridin-4-ol]
8 | 3800 | CCC(=O)NC1COCc2c(-c3ccc4cnn(C)c4c3)cncc21 (single isomer, unassigned) [Compound 155, N-[8-(1-Methyl-1H-indazol-6-yl)-3,4-dihydro-1H-pyrano[4,3-c]pyridin-4-yl]-propionamide]
9 | 2100 | Cn1ncc2ccc(-c3cncc4c3COCC4NS(C)(=O)=O)cc21 (single isomer, unassigned) [Compound 80, N-[8-(1-Methyl-1H-indazol-6-yl)-3,4-dihydro-1H-pyrano[4,3-c]pyridin-4-yl]-methanesulfonamide]
10 | 253 | OC1CCOc2ccc(-c3cncc4c3COCC4O)cc21 (single isomer, unassigned) [Compound 134, 8-(4-Hydroxy-chroman-6-yl)-3,4-dihydro-1H-pyrano[4,3-c]pyridin-4-ol]
11 | 1690 | CCC(=O)NC1COCc2c(-c3ccc4c(c3)OCCNC4=O)cncc21 (single isomer, unassigned) [Compound 147, N-[8-(5-Oxo-2,3,4,5-tetrahydro-benzo[f][1,4]oxazepin-8-yl)-3,4-dihydro-1H-pyrano[4,3-c]pyridin-4-yl]-propionamide]
12 | 55.7 | OC1COCc2c(-c3ccc4ocnc4c3)cncc21 (single isomer, unassigned) [Compound 49, 8-Benzooxazol-5-yl-3,4-dihydro-1H-pyrano[4,3-c]pyridin-4-ol]
13 | 79.9 | OC1COCc2c(-c3ccc4c(c3)COCCO4)cncc21 (single isomer, unassigned) [Compound 107, 8-(2,3-Dihydro-5H-benzo[e][1,4]dioxepin-7-yl)-3,4-dihydro-1H-pyrano[4,3-c]pyridin-4-ol]
14 | 13 | CCS(=O)(=O)NC1COCc2c(-c3ccc4oc(=O)ccc4c3)cncc21 (single isomer, unassigned) [Compound 158, Ethanesulfonic acid [8-(2-oxo-2H-chromen-6-yl)-3,4-dihydro-1H-pyrano[4,3-c]pyridin-4-yl]-amide]
15 | 140 | CCS(=O)(=O)NC1COCc2c(-c3cc4c(cnn4C)cc3F)cncc21 (single isomer, unassigned) [Compound 195, Ethanesulfonic acid [8-(5-fluoro-1-methyl-1H-indazol-6-yl)-3,4-dihydro-1H-pyrano[4,3-c]pyridin-4-yl]-amide]
